In assay [1] the target is T1, HCV polymerase 1A (Δ21 NS5B, H77) (Hepatitis C virus genotype 1a, UniProt P27958).
T1 construct: 20 to 50 nM Δ21 NS5B
Put plainly: biochemical. The settings on record: IC50 1a. Put shortly: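 Radiometric assay with Δ21 NS5B (H77): 20 μM CTP, 20 μM ATP, 1 μM ^3H-UTP, 5 nM template RNA, 2–4 h at room temperature. RNA precipitated with spermine, filter-captured and counted. IC50 from non-linear fit of retained cpm vs inhibitor concentration (tight-binding equation).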

The target of assay [2] is T2, HCV polymerase 1B (Δ21 NS5B, BK) (Hepatitis C virus genotype 1b, UniProt P26663).
T2 construct: 20 to 50 nM Δ21 NS5B
T2 sequence (P26663 2420-2989, stated change not applied): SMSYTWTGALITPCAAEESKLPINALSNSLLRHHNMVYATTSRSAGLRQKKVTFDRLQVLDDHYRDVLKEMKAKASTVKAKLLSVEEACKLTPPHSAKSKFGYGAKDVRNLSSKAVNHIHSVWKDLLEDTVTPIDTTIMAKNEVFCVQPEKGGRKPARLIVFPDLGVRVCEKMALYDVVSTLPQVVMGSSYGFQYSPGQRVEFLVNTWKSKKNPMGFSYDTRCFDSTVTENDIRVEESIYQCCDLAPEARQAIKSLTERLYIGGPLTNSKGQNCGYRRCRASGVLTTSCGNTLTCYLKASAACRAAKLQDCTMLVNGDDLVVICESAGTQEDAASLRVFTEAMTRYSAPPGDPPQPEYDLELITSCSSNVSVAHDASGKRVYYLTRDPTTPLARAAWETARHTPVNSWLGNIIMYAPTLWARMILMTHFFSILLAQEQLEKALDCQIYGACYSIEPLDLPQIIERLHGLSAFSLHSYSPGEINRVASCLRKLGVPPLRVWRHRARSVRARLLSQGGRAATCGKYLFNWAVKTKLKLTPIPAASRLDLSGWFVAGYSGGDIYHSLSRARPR
Briefly: biochemical. Put shortly:
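Δ21 NS5B (genotype 1b, BK […]) preincubated 15 min RT with inhibitor, 2 mM MnCl2, pH 7.4, 60–125 μM GTP; started with 20 μM CTP/ATP, 1 μM 3H-UTP, 5 nM template RNA, run 2–4 h RT. Spermine-precipitated RNA filter-captured, scintillation counted; IC50 from tight-binding (Morrison) fit.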

The subject of assay [3] is genotype 1a-H77 subgenomic replicon cell line. Put plainly: microbe, parasite or virus in culture. The settings on record: Hepatitis C virus, read-out: EC50 1a. It counts as cell-based, HCV.
In assay [4] the test system is genotype 1b-Con1 subgenomic replicon cell line. Put plainly: microbe, parasite or virus in culture. The settings on record: Hepatitis C virus, read-out: EC50 1b. It counts as cell-based, HCV.

Where only a bound is given, the exact number is not on record here.

T1 sequence (P27958 2421-2990, stated change not applied): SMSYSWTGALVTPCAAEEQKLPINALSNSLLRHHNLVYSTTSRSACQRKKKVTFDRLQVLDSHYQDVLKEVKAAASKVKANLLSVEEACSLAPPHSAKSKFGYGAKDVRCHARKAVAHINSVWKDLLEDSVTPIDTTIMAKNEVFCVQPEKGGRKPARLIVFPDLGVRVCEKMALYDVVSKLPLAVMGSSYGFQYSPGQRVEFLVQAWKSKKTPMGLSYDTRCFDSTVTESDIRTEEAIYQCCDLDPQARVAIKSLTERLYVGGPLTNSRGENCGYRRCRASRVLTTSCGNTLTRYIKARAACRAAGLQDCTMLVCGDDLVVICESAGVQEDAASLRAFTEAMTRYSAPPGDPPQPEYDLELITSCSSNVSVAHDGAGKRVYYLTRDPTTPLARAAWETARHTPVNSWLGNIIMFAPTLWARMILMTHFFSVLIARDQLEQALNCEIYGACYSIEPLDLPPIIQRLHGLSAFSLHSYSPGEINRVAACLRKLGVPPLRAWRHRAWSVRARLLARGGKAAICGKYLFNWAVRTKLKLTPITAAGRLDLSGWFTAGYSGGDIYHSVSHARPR

As usually defined, the IC50 is the concentration that inhibits the measured activity by half. The EC50 is the concentration at which the effect is half-maximal. In the case of `COc1c(COc2ccc(NS(C)(=O)=O)cc2)cc(N2CCC(=O)NC2=O)cc1C(C)(C)C` [IA-L6-1.1, N-(4-(3-tert-butyl-5-(2,4-dioxotetrahydropyrimidin-1(2H)-yl)-2-methoxybenzyloxy)phenyl)methanesulfonamide], the values for the IC50 in assay [1] and in assay [2] were 0.01 to 0.1 µM and 0.1 to 1 µM, respectively. Moreover, the figures for the half-maximal effective concentration (EC50) in assay [3] and in assay [4] were 0.1 to 1 µM and 0.01 to 0.1 µM, respectively.
With `COc1c(-c2cccc(/C(C)=N/NS(C)(=O)=O)c2)cc(-n2ccc(=O)[nH]c2=O)cc1C(C)(C)C` [IB-L0-1.9, (E)-N′-(1-(3′-tert-butyl-5′-(2,4-dioxo-3,4-dihydropyrimidin-1(2H)-yl)-2′-methoxybiphenyl-3-yl)ethylidene)methanesulfonohydrazide], the IC50 in assay [1] and in assay [2] was 0.1 to 1 µM each time. Also, the EC50 in assay [3] and in assay [4] was greater than 1 µM in each case.
On to `COc1c(-c2cc(F)c(/C=N/NS(C)(=O)=O)c(F)c2)cc(N2CCC(=O)NC2=O)cc1C(C)(C)C` [IA-L0-1.3, (E)-N′-((3′-tert-butyl-5′-(2,4-dioxotetrahydropyrimidin-1(2H)-yl)-3,5-difluoro-2′-methoxybiphenyl-4-yl)methylene)methanesulfonohydrazide], for which the IC50 in assay [1] and in assay [2] was 0.1 to 1 µM in each case. Further, the EC50 in assay [3] and in assay [4] was 0.1 to 1 µM each time.
As to `CCc1cc(N2CCC(=O)NC2=O)cc(C(=O)Nc2ccc(NS(C)(=O)=O)cc2)c1OC` [IA-L3-1.112, 5-(2,4-dioxotetrahydropyrimidin-1(2H)-yl)-3-ethyl-2-methoxy-N-(4-(methylsulfonamido)phenyl)benzamide], the IC50 in assay [1] and in assay [2] was 0.1 to 1 µM each time. Also, the EC50 in assay [3] is greater than 1 µM; in assay [4], 0.1 to 1 µM.
In the case of `COc1c(C(=O)Cc2ccc(NS(C)(=O)=O)cc2)cc(N2CCC(=O)NC2=O)cc1C(C)(C)C` [IA-L11-1.1, N-(4-(2-(3-tert-butyl-5-(2,4-dioxotetrahydropyrimidin-1(2H)-yl)-2-methoxyphenyl)-2-oxoethyl)phenyl)methanesulfonamide], the IC50 in assay [1] and in assay [2] was 0.01 to 0.1 µM throughout. For the same molecule, the EC50 in assay [3] was 0.1 to 1 µM; in assay [4], 0.01 to 0.1 µM.
For the molecule `COc1c(C#Cc2ccc(NS(C)(=O)=O)cc2O)cc(-n2ccc(=O)[nH]c2=O)cc1C(C)(C)C` [IB-L2-1.6, N-(4-((3-tert-butyl-5-(2,4-dioxo-3,4-dihydropyrimidin-1(2H)-yl)-2-methoxyphenyl)ethynyl)-3-hydroxyphenyl)fmethanesulfonamide], the IC50 in assay [1] is less than 0.01 µM; in assay [2], 0.01 to 0.1 µM. Moreover, the figures for the EC50 in assay [3] and in assay [4] were 0.01 to 0.1 µM and less than 0.01 µM, respectively.
On to `COc1cc(NS(C)(=O)=O)ccc1C(=O)Nc1cc(-n2ccc(=O)[nH]c2=O)cc(C(C)(C)C)c1OC` [IB-L4-1.1, N-(3-tert-butyl-5-(2,4-dioxo-3,4-dihydropyrimidin-1(2H)-yl)-2-methoxyphenyl)-2-methoxy-4-(methylsulfonamido)benzamide], for which the IC50 in assay [1] was less than 0.01 µM; in assay [2], 0.01 to 0.1 µM. The EC50 in assay [3] lay within 0.1 to 1 µM; in assay [4], 0.01 to 0.1 µM.
As to `COc1c(C(=O)Nc2ccc(OS(C)(=O)=O)cc2)cc(N2CCC(=O)NC2=O)cc1C(C)(C)C` [IA-L3-1.41, 4-(3-tert-butyl-5-(2,4-dioxotetrahydropyrimidin-1(2H)-yl)-2-methoxybenzamido)phenyl methanesulfonate], the IC50 in assay [1] is 0.1 to 1 µM; in assay [2], greater than 1 µM. The EC50 in assay [3] is greater than 1 µM; in assay [4], 0.1 to 1 µM.
`COc1c(C#Cc2ncc(NS(C)(=O)=O)cc2C)cc(N2CCC(=O)NC2=O)cc1C(C)(C)C` [IA-L2-1.24, N-(6-((3-tert-butyl-5-(2,4-dioxotetrahydropyrimidin-1(2H)-yl)-2-methoxyphenyl)ethynyl)-5-methylpyridin-3-yl)methanesulfonamide]: the IC50 in assay [1] is less than 0.01 µM; in assay [2] it was 0.01 to 0.1 µM. The results for the EC50 in assay [3] and in assay [4] were 0.1 to 1 µM and 0.01 to 0.1 µM, respectively.

Source of the values: patent publication US8415351B2 (priority 2007, dated 2013).
